Results from US12350310B2, “Treatment and prevention of nephrotoxin-induced kidney injuries” (Farsight Medical Technology (Shanghai) Co., Ltd., priority 2019, dated 2025).
“And” between values parts separate entries of the source, which are not always exact repeats. Identical values can stand only once. “Also recorded” adds a separate entry of the source.

How the values were obtained:
[1] = system: gentamicin-induced acute kidney injury; experiment: Gentamicin-induced acute kidney injury model in rats (Example 1); format: in vivo, male Wistar rats; conditions: Compound I 3 mg/kg i.p. before gentamicin 100 mg/kg i.p. daily
Method: Efficacy of the compound of Compound I against gentamicin-induced acute kidney injury was tested in a model study with male Wistar rats (180-220 g) randomly grouped based on body weights. Three groups formed part of the study: control, vehicle, and compound I (see Table I). Except for the control group, gentamicin (100 mg/kg) was given by intraperitoneal injection for 10 consecutive days, once daily from Day 1 to Day 10. The first day of gentamicin injection was designated as Day 1 of the study.
The vehicle, or the Compound I formulated in the vehicle was administered intraperitoneally (i.p.) for 10 days, from Day 1 to Day 10 of the study (total 11 times). On initiation of the experiment (Day 1), Compound I (3 mg/kg) was administered by i.p. injection 6 h, and 1 h before the gentamicin injection. Thereafter, on Day 2 to Day 10, Compound I was administered once daily (3 mg/kg) 1 h prior to the gentamicin injection. Body weights of the rats were recorded daily. On the day 10, the animals were euthanized and blood sample was collected via cardiac punction. Serum was collected and stored at −80° C. for kidney function analysis of blood urea nitrogen (BUN) and creatinine.

[2] = system: gentamicin-induced acute kidney injury; experiment: Gentamicin-induced acute kidney injury model in rats, pathology and dose response (Example 2); format: in vivo; conditions: Compound I 0.5, 3, 9 mg/kg i.p.
Method: A further study in rats was carried out essentially in analogy to the general study protocol described in Example 1, to further assess the efficacy and impact of Compound I against gentamicin-induced acute kidney injury and to test the dose response. The tissue pathology, as well as the additional biomarkers were assessed.
Five groups formed part of the study (See Table 2): control (Group 1), vehicle (Group 2), and animals receiving Compound I at doses of 0.5 mg/kg (Group 3), 3 mg/kg (Group 4) and 9 mg/kg (Group 5). Except for the control Group 1, gentamicin (100 mg/kg) was given by intraperitoneal injection for 10 consecutive days, once daily from Day 1 to Day 10.
The vehicle, or Compound I formulated in the vehicle was administered intraperitoneally (i.p.) for 10 days, from Day 1 to Day 10 of the study (total 11 times). On initiation of the experiment (Day 1), Compound I at the specified dose amounts was administered by i.p. injection 6 h, and 1 h before the gentamicin injection to the animals in groups 3, 4 and 5. Thereafter, on Day 2 to Day 10, Compound I was administered once daily at the specified dose to said study groups, approximately 1 h prior to the gentamicin injection. On day 10, the rats were euthanized. Blood samples were collected, and the kidney tissues (both left and right kidneys) of the rats were also taken for H&E staining. Histopathological evaluation was performed on the kidney sections using standard methods and scoring criteria in the art to assess the level of tissue damage caused by the gentamicin-induced acute kidney injury. The kidney sections were assessed and scored for: necrosis of renal tubules, tubular dilation, loss of tubular brush border, cast formation in the renal tubules, and interstitial inflammatory cell (neutrophil) infiltration. The scoring was performed on a scale of 0 to 4 (0=0% i.e. no observation, 1≤5%, 2=5-25%, 3=25-50%, 4≥50% i.e. extensive, severe, or widely visible damage) on both left and right kidney tissues. The scoring was accumulated to provide a total combined score.
Kidney function analysis based on blood urea nitrogen (BUN) and creatinine in the serum was performed. Assay in plasma for biomarkers NGAL (neutrophil gelatinase-associated lipocalin) and Kim-1 (kidney injury molecule-1) was also determined.

[3] = system: rhabdomyolysis-induced acute kidney injury; experiment: Rhabdomyolysis-induced (glycerine) acute kidney injury model in rats (Example 3); format: in vivo, male SD rats; conditions: Compound I 3 mg/kg IP at 6 h and 1 h prior to glycerine, kidneys after 48 h, Group 3, Mean (SEM)
Method: The efficacy of Compound I in protection against rhabdomyolysis-induced acute kidney injury was tested in a model study in male SD rats. The acute kidney injury model was induced in the rats by bilateral intra-muscular injection of 50% Glycerine (at a dose volume of 10 ml/kg body weight, divided into two sites of injection at each limb). Glycerine induces physiological conditions which are closely associated with rhabdomyolysis, such as myoglobinuria, tubular necrosis, and renal vasoconstriction.
Three groups formed part of the study: sham, vehicle, and compound I. Except for the sham group, where no glycerine was injected, animals were dosed twice intraperitoneally with either Compound I or Vehicle: at 6 h and at 1 h prior to receiving the glycerine injection (see Table 3).
After 48 h, the animals were euthanized, and their right and left kidneys were fixed in formalin 10%. Each kidney was cut longitudinally into 2 halves, both placed in a cassette and processed in paraffin. Sections were cut and stained using Hematoxylin and Eosin (H&E). The kidney sections were examined and histopathological analysis and scoring was performed for tubular, endothelial, glomerular and tubulointerstitial damage based on scoring systems in the art (e.g. Khalid U. et al, Journal of Histology & Histopathology. Volume 3, Article 1. 2016). Tubular epithelial necrosis scoring was based on the total number of tubules in the outer stripe of the outer medulla (OSOM). Tubulointerstitial damage was scored as a total percentage of the entire tissue observed in the section. The scores of each parameter were also added to provide a total histopathological score.
Table 4 summarizes the histopathology scoring results for the test groups sham (Group 1), vehicle (Group 2) and compound I (Group 3). All data are presented as Mean±SEM. All treatment groups were compared to the sham group (Group 1) or to the vehicle group (Group 2) using Student's T-Test. A p value <0.05 is considered to represent a significant difference.

[4] = especially G4 and G5, versus G2 vehicle
[5] = gentamicin 100 mg/kg daily, Day 10, versus G2 vehicle
[6] = gentamicin 100 mg/kg daily, Day 10, versus Group 2 vehicle

## C/C=C/C[C@@H](C)[C@@H](O)[C@H]1C(=O)N[C@@H](CC)C(=O)N(C)[C@H](OCCN(C)C)C(=O)N(C)[C@@H](CC(C)C)C(=O)N[C@@H](C(C)C)C(=O)N(C)[C@@H](CC(C)C)C(=O)N[C@@H](C)C(=O)N[C@H](C)C(=O)N(C)[C@@H](CC(C)C)C(=O)N(C)[C@@H](CC(C)C)C(=O)N(C)[C@@H](C(C)C)C(=O)N1C [Compound I, [(R)-2′ (2-dimethylaminoethoxy)-Sar]^3 cyclosporin A]
[1]; Day 1-10, versus vehicle group
  rate of body weight gain over the 10-day study period (FIG. 1A): faster rate of body weight gain
[1]; Day 1 to Day 10, versus vehicle group
  overall body-weight change from baseline measurement on Day 1 (FIG. 1B): higher compared to the rats only treated with vehicle
[1]; Day 10 serum
  serum blood urea nitrogen (BUN) level at endpoint (FIG. 2): lower, compared to levels determined for the vehicle group; also recorded: comparable or similar levels as measured for the control group
  serum creatinine level at endpoint (FIG. 3): lower, compared to levels determined for the vehicle group; also recorded: comparable or similar levels as measured for the control group
[2]; especially 3 and 9 mg/kg groups, gentamicin 100 mg/kg daily, Day 10, versus G2 vehicle
  total acute kidney injury pathology scoring of kidney tissue (FIG. 4A): statistically significant impact in terms of generally reducing the severity of physical injury
[2]; [4]
  KIM-1 biomarker level in plasma at endpoint (FIG. 7): statistically relevant reduced levels
  NGAL biomarker level in plasma at endpoint (FIG. 8): statistically relevant reduced levels
[2]; [5]
  severity of neutrophil infiltration (FIG. 4B): markedly reduced
  severity of tubular dilation (FIG. 4B): markedly reduced
[2]; [6]
  serum BUN level at endpoint (FIG. 6): lower
  serum creatinine level at endpoint (FIG. 5): lower
[3]
  ED (Endothelial damage) score, Mean: 0.00 a.u.
  GD (Glomerular damage) score, Mean: 0.00 a.u.
  TD (Tubular Damage) score, Mean: 1.10±0.07 a.u. and 1.10## a.u.
[3]; p<0.01 vs. vehicle
  TID (Tubulointersititial damage) score, Mean: 1.15±0.08 a.u. and 1.15##** a.u.
  Total Histopathological Score, Mean: 2.15±0.08 a.u. and 2.15##** a.u.
